Our source for the IC50 values is US20250163104A1, “MACROCYCLIC IMMUNOMODULATORS” (priority 2021, published 2025).

This assay has as its target T1, human PD-1 / PD-L1-Ig binding on Jurkat cell line over-expressing human PD-1 (Jurkat-PD-1) (Homo sapiens, UniProt Q15116).
T1 construct: expressed in transfected cells; host or cells: Jurkat
Description: Jurkat-PD-1 Cell Binding High-Content Screening Assay (CBA). The assay is classed as cell-based. The note with it: PE-labeled PD-L1-Ig 20 nM final. The method, boiled down: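 PE-PD-L1-Ig 20 nM final; cells in DMEM/10% FCS; cpd pre-incubation 2 h, 37° C; ligand 1 h; PFA fix + Hoechst 33342; high-content imaging read-out.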

Where [1] appears, read: Jurkat-PD-1 cells, read-out: Jurkat HPD1_PDL1 IC50.

Like-named read-outs stand apart in the source and are kept apart here. Where a SMILES comes first, the peptide text is derived from it. Bridges are numbered along the chain shown (N, C = ends). [ ]: non-standard residue; d: D form. The star is where a group is joined. ξ: configuration not given here. Phe(4-COOH) = N[C@@H](Cc1ccc(C(=O)O)cc1)C(=O)O; Bip = N[C@@H](Cc1ccc(-c2ccccc2)cc1)C(=O)O; Phe(3-CN) = N#Cc1cccc(C[C@H](N)C(=O)O)c1; Phe(3-OMe) = COc1cccc(C[C@H](N)C(=O)O)c1; Phe(3-Me) = Cc1cccc(C[C@H](N)C(=O)O)c1; ξLys(N3) = [N-]=[N+]=NCCCCC(N)C(=O)O; Val(3-OH) = CC(C)(O)[C@H](N)C(=O)O; mTyr = N[C@@H](Cc1cccc(O)c1)C(=O)O; 4Pal = N[C@@H](Cc1ccncc1)C(=O)O; Cha = N[C@@H](CC1CCCCC1)C(=O)O; Cit = NC(=O)NCCC[C@H](N)C(=O)O; Thr(3ξ) = CC(O)[C@H](N)C(=O)O; Carboxymethyl = O=C(O)C*; NMeA = CN[C@@H](C)C(=O)O; Nle = CCCC[C@H](N)C(=O)O; Orn = NCCC[C@H](N)C(=O)O; Dab = NCC[C@H](N)C(=O)O; Dap = NC[C@H](N)C(=O)O; Bn = c1ccc(C*)cc1; Propargyl = C#CC*

T1 sequence (Q15116 25-288): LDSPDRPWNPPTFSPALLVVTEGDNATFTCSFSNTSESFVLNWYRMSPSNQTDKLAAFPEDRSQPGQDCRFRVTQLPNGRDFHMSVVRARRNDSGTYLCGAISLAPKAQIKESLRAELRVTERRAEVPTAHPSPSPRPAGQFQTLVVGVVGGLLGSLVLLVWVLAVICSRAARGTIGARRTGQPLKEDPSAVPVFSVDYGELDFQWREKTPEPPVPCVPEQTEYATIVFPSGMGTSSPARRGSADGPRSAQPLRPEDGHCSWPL

Turning to `CC(C)C[C@H]1NC(=O)[C@H](CCCN)NC(=O)[C@H](CCC(=O)O)NC(=O)[C@H](Cc2ccc(-c3ccccc3)cc2)NC(=O)[C@H](C(C)C)NC(=O)[C@H](Cc2c[nH]c3ccccc23)NC(=O)[C@H](CC(=O)O)NC(=O)[C@H](Cc2ccc(OCC(=O)O)cc2)NC(=O)[C@H](CN)NC(=O)CSC[C@@H](C(=O)N[C@@H](C)C(N)=O)NC(=O)[C@H]([C@@H](C)O)NC(=O)[C@H](C(C)C)NC(=O)[C@H](Cc2ccccc2)NC(=O)[C@H](CCN)NC1=O` [Compound 1666] ({CH2CO}-[Dap]Y(Carboxymethyl)DWV[Bip]E[Orn][dL][Dab]FVTCA-NH2; thioether N-14), the IC50 under setting [1] stood at 17.3 nM.
Still for that read-out and setting: to `COc1cccc(C[C@@H]2NC(=O)[C@H](CC(=O)O)NC(=O)[C@H](Cc3ccc(C(=O)O)cc3)NC(=O)[C@H](Cc3ccncc3)NC(=O)CSC[C@@H](C(=O)N[C@@H](C)C(N)=O)NC(=O)[C@H]([C@@H](C)O)NC(=O)[C@H](C(C)C)NC(=O)[C@H](CC(C)C)NC(=O)[C@H](CCN)NC(=O)[C@@H](CC(C)C)NC(=O)[C@H](CCCN)NC(=O)[C@H](CCCNC(N)=O)NC(=O)[C@H](Cc3ccc(-c4ccccc4)cc3)NC(=O)[C@H](C(C)C)NC2=O)c1` [Compound 1179] ({CH2CO}-[4Pal][Phe(4-COOH)]D[Phe(3-OMe)]V[Bip][Cit][Orn][dL][Dab]LVTCA-NH2; thioether N-14) belongs 5.8 nM; to `CC(C)C[C@H]1NC(=O)[C@H](CCCN)NC(=O)[C@H](C(C)C)NC(=O)[C@H](Cc2ccc(-c3ccccc3)cc2)NC(=O)[C@H](C(C)C)NC(=O)[C@H](Cc2c[nH]c3ccccc23)NC(=O)[C@H](CC(=O)O)NC(=O)[C@H](Cc2ccc(OCC(=O)O)cc2)NC(=O)[C@H](C(C)O)NC(=O)CSC[C@@H](C(=O)N(C)[C@@H](C)C(N)=O)NC(=O)[C@H](CO)NC(=O)[C@H](C(C)C)NC(=O)[C@H](CC2CCCCC2)NC(=O)[C@H](CCN)NC1=O` (stereo partly drawn) [Compound 2570] ({CH2CO}-[Thr(3ξ)]Y(Carboxymethyl)DWV[Bip]V[Orn][dL][Dab][Cha]VSC[NMeA]-NH2; thioether N-14), 15.2 nM; to `C#CCOc1ccc(C[C@@H]2NC(=O)[C@H](CN)NC(=O)CSC[C@@H](C(=O)NC(CCCCN=[N+]=[N-])C(N)=O)NC(=O)[C@H]([C@@H](C)O)NC(=O)[C@H](C(C)C)NC(=O)[C@H](CC3CCCCC3)NC(=O)[C@H](CCN)NC(=O)[C@@H](CC(C)C)NC(=O)[C@H](CCCN)NC(=O)[C@H](CCC(=O)O)NC(=O)[C@H](Cc3ccc(-c4ccccc4)cc3)NC(=O)[C@H](C(C)C)NC(=O)[C@H](Cc3c[nH]c4ccccc34)NC(=O)[C@H](CC(=O)O)NC2=O)cc1` (stereo partly drawn) [Compound 1538] ({CH2CO}-[Dap]Y(Propargyl)DWV[Bip]E[Orn][dL][Dab][Cha]VTC[ξLys(N3)]-NH2; thioether N-14), 135 nM.
Same read-out and setting: to `CCC[C@@H]1NC(=O)[C@H](Cc2c[nH]c3ccccc23)NC(=O)[C@H](CC(=O)O)NC(=O)[C@H](Cc2ccc(OCC(=O)O)cc2)NC(=O)[C@H](CN)NC(=O)CSC[C@@H](C(=O)N[C@@H](C)C(N)=O)NC(=O)[C@H]([C@@H](C)O)NC(=O)[C@H](C(C)C)NC(=O)[C@H](CC2CCCCC2)NC(=O)[C@H](CCN)NC(=O)[C@@H](CC(C)C)NC(=O)[C@H](CCCN)NC(=O)[C@H](C(C)C)NC(=O)[C@H](Cc2ccc(-c3ccccc3)cc2)NC1=O` [Compound 1735] belongs 13.6 nM; to `Cc1cccc(C[C@@H]2NC(=O)[C@H](CC(=O)O)NC(=O)[C@H](Cc3ccncc3)NC(=O)[C@H](CN)NC(=O)CSC[C@@H](C(=O)N[C@@H](C)C(N)=O)NC(=O)[C@H]([C@@H](C)O)NC(=O)[C@H](C(C)C)NC(=O)[C@H](CC3CCCCC3)NC(=O)[C@H](Cc3cnc[nH]3)NC(=O)[C@@H](CC(C)C)NC(=O)[C@H](CCCN)NC(=O)[C@H](C(C)C)NC(=O)[C@H](Cc3ccc(-c4ccccc4)cc3)NC(=O)[C@H](C(C)C)NC2=O)c1` [Compound 1583], 20 nM.
Same read-out and setting: to `Cc1cccc(C[C@@H]2NC(=O)[C@H](CC(=O)O)NC(=O)[C@H](Cc3cccc(C#N)c3)NC(=O)[C@H](Cc3ccncc3)NC(=O)CSC[C@@H](C(=O)N[C@@H](CCN)C(N)=O)NC(=O)[C@H](CO)NC(=O)[C@H](C(C)(C)O)NC(=O)[C@H](CC3CCCCC3)NC(=O)[C@H](CCN)NC(=O)[C@@H](CC(C)C)NC(=O)[C@H](CCCN)NC(=O)[C@H](Cc3ccc(OCC(=O)O)cc3)NC(=O)[C@H](Cc3ccc(-c4ccccc4)cc3)NC(=O)[C@H](Cc3ccc(C(=O)O)cc3)NC2=O)c1` [Compound 2626] ({CH2CO}-[4Pal][Phe(3-CN)]D[Phe(3-Me)][Phe(4-COOH)][Bip]Y(Carboxymethyl)[Orn][dL][Dab][Cha][Val(3-OH)]SC[Dab]-NH2; thioether N-14) belongs 10.7 nM; to `CC(C)C[C@@H]1NC(=O)[C@H](Cc2c[nH]c3ccccc23)NC(=O)[C@H](CC(=O)O)NC(=O)[C@H](Cc2ccc(C(=O)O)cc2)NC(=O)[C@H](Cc2ccc(OCC(=O)O)cc2)NC(=O)CSC[C@@H](C(=O)NCC(N)=O)NC(=O)[C@H](CO)NC(=O)[C@H](C(C)C)NC(=O)[C@H](CC2CCCCC2)NC(=O)[C@H](CC(N)=O)NC(=O)[C@@H](CC(C)C)NC(=O)[C@H](CN)NC(=O)[C@H](C(C)C)NC(=O)[C@H](Cc2ccc(-c3ccccc3)cc2)NC1=O` [Compound 1393] ({CH2CO}-Y(Carboxymethyl)[Phe(4-COOH)]DWL[Bip]V[Dap][dL]N[Cha]VSCG-NH2; thioether N-14), 25.3 nM; to `CCCC[C@@H]1NC(=O)[C@H](CCN)NC(=O)[C@@H](CC(C)C)NC(=O)[C@H](CCCN)NC(=O)[C@H](CCCNC(N)=O)NC(=O)[C@H](Cc2ccc(-c3ccccc3)cc2)NC(=O)[C@H](C(C)C)NC(=O)[C@H](Cc2cccc(C)c2)NC(=O)[C@H](CC(=O)O)NC(=O)[C@H](Cc2ccc(C(=O)O)cc2)NC(=O)[C@H](CN)NC(=O)CSC[C@@H](C(=O)N[C@@H](C)C(N)=O)NC(=O)[C@H]([C@@H](C)O)NC(=O)[C@H](C(C)C)NC1=O` [Compound 1201] ({CH2CO}-[Dap][Phe(4-COOH)]D[Phe(3-Me)]V[Bip][Cit][Orn][dL][Dab][Nle]VTCA-NH2; thioether N-14), 3.4 nM.
Regarding `CCNC(=O)[C@H](CCN)NC(=O)[C@@H]1CSCC(=O)N[C@@H](CN)C(=O)N[C@@H](Cc2ccc(OCC(=O)O)cc2)C(=O)N[C@@H](CC(=O)O)C(=O)N[C@@H](Cc2cccc(O)c2)C(=O)N[C@@H](Cc2ccc(O)cc2)C(=O)N[C@@H](Cc2ccc(-c3ccccc3)cc2)C(=O)N[C@@H](Cc2ccc(O)cc2)C(=O)N[C@@H](CCCN)C(=O)N[C@H](CC(C)C)C(=O)N[C@@H](CCN)C(=O)N[C@@H](CC2CCCCC2)C(=O)N[C@@H](C(C)C)C(=O)N[C@@H](CCCN)C(=O)N1` [Compound 2047] ({CH2CO}-[Dap]Y(Carboxymethyl)D[mTyr]Y[Bip]Y[Orn][dL][Dab][Cha]V[Orn]C[Dab]-NHEt; thioether N-14), under setting [1], the IC50 came to 2.8 nM.
`CC(C)C[C@H]1NC(=O)[C@H](CCCN)NC(=O)[C@H](C(C)C)NC(=O)[C@H](Cc2ccc(-c3ccccc3)cc2)NC(=O)[C@H](C(C)C)NC(=O)[C@H](Cc2c[nH]c3ccccc23)NC(=O)[C@H](CC(=O)O)NC(=O)[C@H](Cc2ccc(OCC(=O)O)cc2)NC(=O)[C@H](CN)NC(=O)CSC[C@@H](C(=O)N[C@@H](C)C(N)=O)NC(=O)[C@H]([C@@H](C)O)NC(=O)[C@H](C(C)C)NC(=O)[C@H](CC2CCCCC2)NC(=O)[C@H](Cc2ccc(OCc3ccccc3)cc2)NC1=O` [Compound 1531] ({CH2CO}-[Dap]Y(Carboxymethyl)DWV[Bip]V[Orn][dL]Y(Bn)[Cha]VTCA-NH2; thioether N-14) registered an IC50 (Jurkat HPD1_PDL1 IC50, Jurkat-PD-1 cells) of 707 nM.
Consider `CC[C@H](C)[C@@H]1NC(=O)[C@H](Cc2ccc(-c3ccccc3)cc2)NC(=O)[C@H](C(C)C)NC(=O)[C@H](Cc2cccc(C)c2)NC(=O)[C@H](CC(=O)O)NC(=O)[C@H](Cc2ccncc2)NC(=O)[C@H](CN)NC(=O)CSC[C@@H](C(=O)N[C@@H](C)C(N)=O)NC(=O)[C@H]([C@@H](C)O)NC(=O)[C@H](C(C)C)NC(=O)[C@H](CC2CCCCC2)NC(=O)[C@H](CCN)NC(=O)[C@@H](CC(C)C)NC(=O)[C@H](CCCN)NC1=O` [Compound 1561], for which the IC50 under setting [1] was 16.2 nM.
For the molecule `CC(C)C[C@H]1NC(=O)[C@H](CCCN)NC(=O)[C@H](CCC(=O)O)NC(=O)[C@H](Cc2ccc(-c3ccccc3)cc2)NC(=O)[C@H](C(C)C)NC(=O)[C@H](Cc2c[nH]c3ccccc23)NC(=O)[C@H](CC(=O)O)NC(=O)[C@H](Cc2ccc(OCC(=O)O)cc2)NC(=O)[C@H](Cc2ccc(OCC(=O)O)cc2)NC(=O)CSC[C@@H](C(=O)N[C@@H](C)C(N)=O)NC(=O)[C@H]([C@@H](C)O)NC(=O)[C@H](C(C)C)NC(=O)[C@H](CC2CCCCC2)NC(=O)[C@H](Cc2cnc[nH]2)NC1=O` [Compound 1593], under setting [1], the IC50 stood at 23 nM.
`CCC(C)[C@@H]1NC(=O)[C@H](Cc2ccc(-c3ccccc3)cc2)NC(=O)[C@H](C(C)C)NC(=O)[C@H](Cc2cccc(C)c2)NC(=O)[C@H](CC(=O)O)NC(=O)[C@H](Cc2cccnc2)NC(=O)[C@H](Cc2ccncc2)NC(=O)CSC[C@@H](C(=O)N[C@@H](C)C(N)=O)NC(=O)[C@H]([C@@H](C)O)NC(=O)[C@H](C(C)C)NC(=O)[C@H](CC2CCCCC2)NC(=O)[C@H](CCN)NC(=O)[C@@H](CC(C)C)NC(=O)[C@H](CCCN)NC1=O` (stereo partly drawn) [Compound 2237]: the IC50 under setting [1] was found to be 22.8 nM.
The same measure, in the same setting: to `Cc1cccc(C[C@@H]2NC(=O)[C@H](CC(=O)O)NC(=O)[C@H](Cc3ccc(OCC(=O)O)cc3)NC(=O)[C@H](Cc3ccncc3)NC(=O)CSC[C@@H](C(=O)N[C@@H](CCN)C(N)=O)NC(=O)[C@H](C(C)O)NC(=O)[C@H](C(C)(C)O)NC(=O)[C@H](CC3CCCCC3)NC(=O)[C@H](CCN)NC(=O)[C@@H](CC(C)C)NC(=O)[C@H](CCCN)NC(=O)[C@H](CCCNC(N)=O)NC(=O)[C@H](Cc3ccc(-c4ccccc4)cc3)NC(=O)[C@H](C(C)C)NC2=O)c1` (stereo partly drawn) [Compound 2630] ({CH2CO}-[4Pal]Y(Carboxymethyl)D[Phe(3-Me)]V[Bip][Cit][Orn][dL][Dab][Cha][Val(3-OH)][Thr(3ξ)]C[Dab]-NH2; thioether N-14) belongs 12.3 nM.

By IC50 is commonly meant the midpoint of a concentration-inhibition curve.
